Measurements published in the supplement of paper PMC11451515.

Tests used:
Conditions in all cases: 48 h
[1] = test system: SEM cells; assay: AUC of viability dose-response curve (% viability x log10 dose units); higher = less sensitive
In short: (§1)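 Over 48 h at 37°C, leukemia cells in 1536-well plates (500 or 1000 cells/well), adapted to each medium, received library compounds in DMSO at 11 threefold doses from 47 μM to 0.79 nM. CellTiter-Glo One luminescence, normalised per plate to DMSO and cell-free wells, was fitted by a four-parameter log-logistic function of log10 dose. The area under the curve was then integrated by trapezoidal rule, after scaling curves above full viability and removing those that failed quality control.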

[2] = test system: P12-Ichikawa; assay: as above
In short: as §1

[3] = test system: NOMO1; assay: as above
In short: as §1

[4] = test system: SEM cells; assay: cell viability relative to DMSO control; higher = less cytotoxic
In short: (§2)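 Three leukemia lines were tested: NOMO1 and SEM at 500 cells/well and P12-Ichikawa at 1000 cells/well. Each was adapted for at least four passages in each medium and seeded in 5 μl in 1536-well plates, and library compounds in DMSO were pin-dosed from 47 μM to 0.79 nM in 11 threefold steps. After 48 h at 37°C, CellTiter-Glo One luminescence was read. Viability is a percentage relative to DMSO wells on each plate, with cell-free wells as background.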

[5] = test system: P12-Ichikawa; assay: as above
In short: as §2

[6] = test system: NOMO1; assay: as above
In short: as §2

C[C@@H]1C(=O)O[C@H]2CC34[C@H]5C[C@@H](C(C)(C)C)C36[C@@H](OC(=O)[C@@H]6O)O[C@@]4(C(=O)O5)[C@]21O (stereo partly drawn)
AUC of viability dose-response curve
Conditions | [1] | [2] | [3]
HPLM + 10% dialyzed FBS | 465 | 447 | 431
RPMI 5 mM glucose + 10% FBS | 467 | 462 | 460
RPMI 5 mM glucose + 10% dialyzed FBS | 456 | 462 | 463

COc1cc(C(=O)NC2CCN(C)CC2)ccc1Nc1ncc2c(n1)N(C1CCCC1)CCC(=O)N2C(C)C
AUC of viability dose-response curve
Conditions | HPLM + 10% dialyzed FBS | RPMI 5 mM glucose + 10% FBS | RPMI 5 mM glucose + 10% dialyzed FBS
[2] | 406 | 410 | 411
[3] | 432 | 442 | 457

cell viability [%]
Conditions | [4] | [5] | [6]
HPLM + 10% dialyzed FBS, 0.000781 µM | 81.4 | 104 | 103
HPLM + 10% dialyzed FBS, 0.00234 µM | 95.1 | 102 | 121
HPLM + 10% dialyzed FBS, 0.00702 µM | 119 | 103 | 110
HPLM + 10% dialyzed FBS, 0.0211 µM | 104 | 110 | 122
HPLM + 10% dialyzed FBS, 0.0632 µM | 105 | 109 | 118
HPLM + 10% dialyzed FBS, 0.19 µM | 112 | 110 | 112
HPLM + 10% dialyzed FBS, 0.569 µM | 6.04 | 85 | 115
HPLM + 10% dialyzed FBS, 1.71 µM | 104 | 109 | 113
HPLM + 10% dialyzed FBS, 5.12 µM | 94.8 | 79.2 | 115
HPLM + 10% dialyzed FBS, 15.4 µM | 59.1 | 26.3 | 58.3
HPLM + 10% dialyzed FBS, 46.1 µM | 13.5 | 4.5 | 9.06
RPMI 5 mM glucose + 10% FBS, 0.000781 µM | 95.4 | 107 | 99.3
RPMI 5 mM glucose + 10% FBS, 0.00234 µM | 106 | 103 | 105
RPMI 5 mM glucose + 10% FBS, 0.00702 µM | 119 | 95.1 | 101
RPMI 5 mM glucose + 10% FBS, 0.0211 µM | 130 | 112 | 108
RPMI 5 mM glucose + 10% FBS, 0.0632 µM | 119 | 108 | 102
RPMI 5 mM glucose + 10% FBS, 0.19 µM | 120 | 116 | 118
RPMI 5 mM glucose + 10% FBS, 0.569 µM | 6.08 | 89.6 | 102
RPMI 5 mM glucose + 10% FBS, 1.71 µM | 98.1 | 114 | 107
RPMI 5 mM glucose + 10% FBS, 5.12 µM | 96.5 | 73.4 | 119
RPMI 5 mM glucose + 10% FBS, 15.4 µM | 54.2 | 42.7 | 75.7
RPMI 5 mM glucose + 10% FBS, 46.1 µM | 55.1 | 5.67 | 15.2
RPMI 5 mM glucose + 10% dialyzed FBS, 0.000781 µM | 83.4 | 98.1 | 92.7
RPMI 5 mM glucose + 10% dialyzed FBS, 0.00234 µM | 109 | 104 | 113
RPMI 5 mM glucose + 10% dialyzed FBS, 0.00702 µM | 117 | 111 | 100
RPMI 5 mM glucose + 10% dialyzed FBS, 0.0211 µM | 120 | 110 | 110
RPMI 5 mM glucose + 10% dialyzed FBS, 0.0632 µM | 112 | 111 | 100
RPMI 5 mM glucose + 10% dialyzed FBS, 0.19 µM | 111 | 106 | 106
RPMI 5 mM glucose + 10% dialyzed FBS, 0.569 µM | 5.18 | 92.3 | 104
RPMI 5 mM glucose + 10% dialyzed FBS, 1.71 µM | 102 | 107 | 117
RPMI 5 mM glucose + 10% dialyzed FBS, 5.12 µM | 96.5 | 71.2 | 109
RPMI 5 mM glucose + 10% dialyzed FBS, 15.4 µM | 53.8 | 54.1 | 105
RPMI 5 mM glucose + 10% dialyzed FBS, 46.1 µM | 60.8 | 6 | 20.6

N=C(N)NC(=N)NCCc1ccccc1
AUC of viability dose-response curve
Conditions | [1] | [2] | [3]
HPLM + 10% dialyzed FBS | 465 | 450 | 464
RPMI 5 mM glucose + 10% FBS | 461 | 440 | 456
RPMI 5 mM glucose + 10% dialyzed FBS | 444 | 438 | 455
